# Experimental data reported in publication PMC10176470, “Engaging a Non-catalytic Cysteine Residue Drives Potent and Selective Inhibition of Caspase-6” (Journal of the American Chemical Society, 2023).
# Where two headings read alike, the source gives them in different places.
# What was measured:
# Assay type in all cases: cell-based
# [1] = target: proteins of HEK293T cells transiently overexpressing caspase-6 (Homo sapiens, UniProt Q8TCD1); settings: protein C18orf32 (Q8TCD1)
# [2] = target: proteins of HEK293T cells transiently overexpressing caspase-6 (Homo sapiens, UniProt Q8IWS0); settings: exp_ref Probe; protein PHF6 (Q8IWS0); analysis C6
# proteins of HEK293T cells transiently overexpressing caspase-6 (Homo sapiens, UniProt Q8IWS0), sequence (Q8IWS0 whole entry): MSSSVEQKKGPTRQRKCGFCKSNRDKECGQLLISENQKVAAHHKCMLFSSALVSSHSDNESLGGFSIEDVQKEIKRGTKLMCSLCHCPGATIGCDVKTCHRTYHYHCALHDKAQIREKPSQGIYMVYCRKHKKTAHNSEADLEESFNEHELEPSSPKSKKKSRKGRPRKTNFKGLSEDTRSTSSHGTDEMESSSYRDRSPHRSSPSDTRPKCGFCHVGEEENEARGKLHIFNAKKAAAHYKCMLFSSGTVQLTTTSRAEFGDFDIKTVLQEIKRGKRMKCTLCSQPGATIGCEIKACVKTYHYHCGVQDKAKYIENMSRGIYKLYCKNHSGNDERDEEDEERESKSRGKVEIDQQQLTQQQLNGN
# [3] = target: proteins of HEK293T cells transiently overexpressing caspase-6 (Homo sapiens, UniProt P00558); settings: exp_ref Probe; protein PGK1 (P00558); analysis C6
# proteins of HEK293T cells transiently overexpressing caspase-6 (Homo sapiens, UniProt P00558), sequence (P00558 whole entry): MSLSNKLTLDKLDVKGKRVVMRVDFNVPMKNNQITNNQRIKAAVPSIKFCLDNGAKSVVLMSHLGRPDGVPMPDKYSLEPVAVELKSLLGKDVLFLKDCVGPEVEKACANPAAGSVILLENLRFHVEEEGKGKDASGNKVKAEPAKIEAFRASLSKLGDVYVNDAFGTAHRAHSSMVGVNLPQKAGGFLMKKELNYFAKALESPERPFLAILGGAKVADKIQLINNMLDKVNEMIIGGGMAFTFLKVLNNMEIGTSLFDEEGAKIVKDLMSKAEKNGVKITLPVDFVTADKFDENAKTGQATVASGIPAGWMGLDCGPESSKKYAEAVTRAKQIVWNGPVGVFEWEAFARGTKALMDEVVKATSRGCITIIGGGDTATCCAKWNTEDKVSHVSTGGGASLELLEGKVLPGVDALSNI
# [4] = target: proteins of HEK293T cells transiently overexpressing caspase-6 (Homo sapiens, UniProt Q00765); settings: protein REEP5 (Q00765)
# proteins of HEK293T cells transiently overexpressing caspase-6 (Homo sapiens, UniProt Q00765), sequence (Q00765 whole entry): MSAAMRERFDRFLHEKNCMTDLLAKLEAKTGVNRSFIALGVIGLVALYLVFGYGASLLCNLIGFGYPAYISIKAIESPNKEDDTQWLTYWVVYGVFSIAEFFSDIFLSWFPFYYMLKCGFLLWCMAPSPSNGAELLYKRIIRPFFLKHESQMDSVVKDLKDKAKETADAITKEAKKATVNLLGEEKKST
# [5] = target: proteins of HEK293T cells transiently overexpressing caspase-6 (Homo sapiens, UniProt P48643); settings: protein CCT5 (P48643)
# proteins of HEK293T cells transiently overexpressing caspase-6 (Homo sapiens, UniProt P48643), sequence (P48643 whole entry): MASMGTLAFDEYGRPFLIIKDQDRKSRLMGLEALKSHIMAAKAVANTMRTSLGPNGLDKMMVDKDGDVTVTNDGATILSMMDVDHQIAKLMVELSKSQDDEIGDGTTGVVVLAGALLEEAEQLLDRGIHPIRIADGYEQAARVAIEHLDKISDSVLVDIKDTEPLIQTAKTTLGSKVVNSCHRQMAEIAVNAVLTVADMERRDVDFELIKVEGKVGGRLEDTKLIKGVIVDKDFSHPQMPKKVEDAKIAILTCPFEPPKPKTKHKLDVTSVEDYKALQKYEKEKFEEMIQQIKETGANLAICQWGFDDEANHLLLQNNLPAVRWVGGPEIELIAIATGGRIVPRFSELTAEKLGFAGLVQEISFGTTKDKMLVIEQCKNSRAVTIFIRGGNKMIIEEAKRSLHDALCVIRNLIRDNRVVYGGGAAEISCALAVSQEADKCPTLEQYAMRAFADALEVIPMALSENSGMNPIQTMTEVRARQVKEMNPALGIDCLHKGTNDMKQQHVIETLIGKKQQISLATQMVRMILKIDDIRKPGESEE
# [6] = target: proteins of HEK293T cells transiently overexpressing caspase-6 (Homo sapiens, UniProt P09429); settings: Probe; protein HMGB1 P09429
# proteins of HEK293T cells transiently overexpressing caspase-6 (Homo sapiens, UniProt P09429), sequence (P09429 whole entry): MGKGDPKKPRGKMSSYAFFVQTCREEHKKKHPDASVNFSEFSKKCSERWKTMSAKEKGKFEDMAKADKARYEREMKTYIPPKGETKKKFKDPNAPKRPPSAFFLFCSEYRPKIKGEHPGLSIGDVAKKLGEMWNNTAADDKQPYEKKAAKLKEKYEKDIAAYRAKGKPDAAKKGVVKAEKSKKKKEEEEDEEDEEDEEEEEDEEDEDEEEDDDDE
# [7] = target: proteins of HEK293T cells transiently overexpressing caspase-6 (Homo sapiens, UniProt Q14980); settings: exp_ref Probe; protein NUMA1 (Q14980); analysis C6
# [8] = target: T1, proteins of HEK293T cells transiently overexpressing caspase-6 (Homo sapiens, UniProt Q8NC51)
# T1 sequence (Q8NC51 1-408): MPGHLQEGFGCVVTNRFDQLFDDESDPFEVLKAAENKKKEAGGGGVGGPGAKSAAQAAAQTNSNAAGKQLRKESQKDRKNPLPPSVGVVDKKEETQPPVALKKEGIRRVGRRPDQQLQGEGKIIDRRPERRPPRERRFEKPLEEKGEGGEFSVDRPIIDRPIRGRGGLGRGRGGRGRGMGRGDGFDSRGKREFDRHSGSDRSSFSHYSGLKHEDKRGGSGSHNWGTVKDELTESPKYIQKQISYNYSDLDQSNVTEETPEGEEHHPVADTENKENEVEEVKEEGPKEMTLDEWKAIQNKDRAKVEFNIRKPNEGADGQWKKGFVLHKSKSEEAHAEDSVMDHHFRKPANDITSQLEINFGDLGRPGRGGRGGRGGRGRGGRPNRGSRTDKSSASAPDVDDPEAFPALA
# [9] = target: T2, proteins of HEK293T cells transiently overexpressing caspase-6 (Homo sapiens, UniProt P30084); settings: exp_ref Probe; protein ECHS1 (P30084); analysis C6
# T2 sequence (P30084 28-290): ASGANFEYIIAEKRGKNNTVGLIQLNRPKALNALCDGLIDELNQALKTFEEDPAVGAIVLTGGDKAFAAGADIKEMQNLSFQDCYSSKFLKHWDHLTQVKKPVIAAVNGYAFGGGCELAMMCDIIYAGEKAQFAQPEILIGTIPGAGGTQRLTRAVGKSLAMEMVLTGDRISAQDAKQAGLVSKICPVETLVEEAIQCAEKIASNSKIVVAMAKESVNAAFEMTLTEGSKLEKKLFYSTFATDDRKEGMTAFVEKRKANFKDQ
# [10] = target: proteins of HEK293T cells transiently overexpressing caspase-6 (Homo sapiens, UniProt Q14566); settings: exp_ref Probe; protein MCM6 (Q14566); analysis C6
# proteins of HEK293T cells transiently overexpressing caspase-6 (Homo sapiens, UniProt Q14566), sequence (Q14566 whole entry): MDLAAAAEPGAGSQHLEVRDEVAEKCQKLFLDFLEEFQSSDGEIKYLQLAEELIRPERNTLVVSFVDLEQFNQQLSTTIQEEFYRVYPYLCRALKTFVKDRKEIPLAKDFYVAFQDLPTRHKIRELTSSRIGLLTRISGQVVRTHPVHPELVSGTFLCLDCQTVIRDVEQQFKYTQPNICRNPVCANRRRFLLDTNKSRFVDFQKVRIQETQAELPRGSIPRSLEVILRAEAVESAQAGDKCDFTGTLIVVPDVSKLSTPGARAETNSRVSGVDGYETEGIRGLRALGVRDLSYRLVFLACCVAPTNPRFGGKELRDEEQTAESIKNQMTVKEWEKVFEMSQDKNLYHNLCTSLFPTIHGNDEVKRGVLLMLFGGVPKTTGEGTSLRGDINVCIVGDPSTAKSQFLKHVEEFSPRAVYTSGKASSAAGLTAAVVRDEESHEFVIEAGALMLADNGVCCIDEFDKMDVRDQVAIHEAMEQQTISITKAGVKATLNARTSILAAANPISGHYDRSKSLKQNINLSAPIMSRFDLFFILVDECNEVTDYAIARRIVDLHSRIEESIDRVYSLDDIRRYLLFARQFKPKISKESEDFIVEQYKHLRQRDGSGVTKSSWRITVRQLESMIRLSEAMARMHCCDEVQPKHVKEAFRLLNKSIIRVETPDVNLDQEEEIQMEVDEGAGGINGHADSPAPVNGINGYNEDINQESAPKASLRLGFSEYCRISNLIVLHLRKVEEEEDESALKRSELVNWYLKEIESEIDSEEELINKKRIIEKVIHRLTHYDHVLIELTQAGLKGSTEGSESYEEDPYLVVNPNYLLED
# [11] = target: proteins of HEK293T cells transiently overexpressing caspase-6 (Homo sapiens, UniProt P26640); settings: Probe; protein VARS P26640
# [12] = target: proteins of HEK293T cells transiently overexpressing caspase-6 (Homo sapiens, UniProt Q9BT22); settings: exp_ref Probe; protein ALG1 (Q9BT22); analysis C6
# proteins of HEK293T cells transiently overexpressing caspase-6 (Homo sapiens, UniProt Q9BT22), sequence (Q9BT22 whole entry): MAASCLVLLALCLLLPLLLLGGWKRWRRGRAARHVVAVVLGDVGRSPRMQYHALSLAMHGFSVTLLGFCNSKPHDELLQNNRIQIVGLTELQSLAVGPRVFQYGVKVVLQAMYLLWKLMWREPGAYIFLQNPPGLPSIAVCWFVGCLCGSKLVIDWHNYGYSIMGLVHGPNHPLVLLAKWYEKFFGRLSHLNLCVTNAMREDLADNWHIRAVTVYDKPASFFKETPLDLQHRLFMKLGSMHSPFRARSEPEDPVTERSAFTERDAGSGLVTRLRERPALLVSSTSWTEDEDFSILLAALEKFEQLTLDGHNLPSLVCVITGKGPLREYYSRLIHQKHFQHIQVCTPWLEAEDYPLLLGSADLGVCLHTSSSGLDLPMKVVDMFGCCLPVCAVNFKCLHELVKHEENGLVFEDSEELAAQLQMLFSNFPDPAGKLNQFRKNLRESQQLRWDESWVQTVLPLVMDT
# [13] = target: proteins of HEK293T cells transiently overexpressing caspase-6 (Homo sapiens, UniProt P52597); settings: Probe; protein HNRNPF P52597
# proteins of HEK293T cells transiently overexpressing caspase-6 (Homo sapiens, UniProt P52597), sequence (P52597 whole entry): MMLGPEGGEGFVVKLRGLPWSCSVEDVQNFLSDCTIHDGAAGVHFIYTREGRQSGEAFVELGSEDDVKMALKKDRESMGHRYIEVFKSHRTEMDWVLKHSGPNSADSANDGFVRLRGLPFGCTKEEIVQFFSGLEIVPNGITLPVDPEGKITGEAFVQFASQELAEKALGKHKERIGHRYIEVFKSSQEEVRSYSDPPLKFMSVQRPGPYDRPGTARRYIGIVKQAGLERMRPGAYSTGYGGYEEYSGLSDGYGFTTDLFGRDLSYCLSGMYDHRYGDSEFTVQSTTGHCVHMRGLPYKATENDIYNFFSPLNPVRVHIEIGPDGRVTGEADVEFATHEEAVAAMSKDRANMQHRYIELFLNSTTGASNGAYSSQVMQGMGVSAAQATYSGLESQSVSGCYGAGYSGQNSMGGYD
# [14] = target: proteins of HEK293T cells transiently overexpressing caspase-6 (Homo sapiens, UniProt P13797); settings: exp_ref Probe; protein PLS3 (P13797); analysis C6
# proteins of HEK293T cells transiently overexpressing caspase-6 (Homo sapiens, UniProt P13797), sequence (P13797 whole entry): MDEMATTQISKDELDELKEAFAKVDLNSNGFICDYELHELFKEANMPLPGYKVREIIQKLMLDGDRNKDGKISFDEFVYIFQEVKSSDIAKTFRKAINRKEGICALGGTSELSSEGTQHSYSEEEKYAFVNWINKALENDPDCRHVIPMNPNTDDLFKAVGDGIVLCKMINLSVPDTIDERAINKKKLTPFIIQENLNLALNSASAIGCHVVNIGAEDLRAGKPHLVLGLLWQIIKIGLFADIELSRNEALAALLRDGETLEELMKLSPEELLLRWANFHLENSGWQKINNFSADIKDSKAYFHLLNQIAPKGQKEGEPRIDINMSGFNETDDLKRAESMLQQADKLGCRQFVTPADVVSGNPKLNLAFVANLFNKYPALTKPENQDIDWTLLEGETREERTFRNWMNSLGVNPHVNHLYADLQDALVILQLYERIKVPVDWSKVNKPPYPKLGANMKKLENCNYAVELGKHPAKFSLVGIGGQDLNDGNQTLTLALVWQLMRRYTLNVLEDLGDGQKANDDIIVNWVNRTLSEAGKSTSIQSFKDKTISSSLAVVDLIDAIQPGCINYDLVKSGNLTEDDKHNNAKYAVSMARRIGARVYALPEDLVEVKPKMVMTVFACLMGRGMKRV
# [15] = target: proteins of HEK293T cells transiently overexpressing caspase-6 (Homo sapiens, UniProt P26599); settings: exp_ref Probe; protein PTBP1 (P26599); analysis C6
# [16] = target: proteins of HEK293T cells transiently overexpressing caspase-6 (Homo sapiens, UniProt P47756); settings: Probe; protein CAPZB P47756
# [17] = target: proteins of HEK293T cells transiently overexpressing caspase-6 (Homo sapiens, UniProt P49321); settings: exp_ref Probe; protein NASP (P49321); analysis C6
# proteins of HEK293T cells transiently overexpressing caspase-6 (Homo sapiens, UniProt P49321), sequence (P49321 whole entry): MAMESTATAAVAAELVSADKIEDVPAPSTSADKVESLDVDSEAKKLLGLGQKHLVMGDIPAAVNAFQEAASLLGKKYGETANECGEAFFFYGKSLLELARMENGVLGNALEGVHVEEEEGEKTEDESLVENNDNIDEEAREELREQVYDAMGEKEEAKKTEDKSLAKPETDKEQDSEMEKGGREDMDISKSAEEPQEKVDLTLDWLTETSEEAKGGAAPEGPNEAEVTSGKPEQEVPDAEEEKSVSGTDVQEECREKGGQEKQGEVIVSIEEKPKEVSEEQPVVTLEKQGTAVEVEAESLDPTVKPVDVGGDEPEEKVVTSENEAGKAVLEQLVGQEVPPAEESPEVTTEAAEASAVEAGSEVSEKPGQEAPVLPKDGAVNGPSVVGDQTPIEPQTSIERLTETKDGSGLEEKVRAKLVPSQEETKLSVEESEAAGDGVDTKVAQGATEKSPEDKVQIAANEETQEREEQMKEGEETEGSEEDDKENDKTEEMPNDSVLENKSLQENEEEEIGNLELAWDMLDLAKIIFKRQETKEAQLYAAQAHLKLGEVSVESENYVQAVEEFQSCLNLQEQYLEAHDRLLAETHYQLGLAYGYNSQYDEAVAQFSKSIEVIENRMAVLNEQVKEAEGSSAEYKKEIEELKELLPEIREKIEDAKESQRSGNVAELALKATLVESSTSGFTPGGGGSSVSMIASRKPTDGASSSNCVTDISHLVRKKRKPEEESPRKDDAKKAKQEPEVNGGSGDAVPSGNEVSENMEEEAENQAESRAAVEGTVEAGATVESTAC
# [18] = target: proteins of HEK293T cells transiently overexpressing caspase-6 (Homo sapiens, UniProt O94919); settings: exp_ref Probe; protein ENDOD1 (O94919); analysis C6
# [19] = target: proteins of HEK293T cells transiently overexpressing caspase-6 (Homo sapiens, UniProt P08195); settings: protein SLC3A2 (P08195); exp_ref Probe; analysis C6
# [20] = target: proteins of HEK293T cells transiently overexpressing caspase-6 (Homo sapiens, UniProt P62244); settings: exp_ref Probe; protein RPS15A (P62244); analysis C6
# proteins of HEK293T cells transiently overexpressing caspase-6 (Homo sapiens, UniProt Q8TCD1), sequence (Q8TCD1 whole entry): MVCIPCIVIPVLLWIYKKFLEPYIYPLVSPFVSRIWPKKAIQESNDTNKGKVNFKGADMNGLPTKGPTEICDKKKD
structure (smiles),measurement,setting,value
C#CCOc1ccc([C@@H]2C[C@@H](C(=O)Nc3ccc(OC(F)(F)F)cc3)CN(S(=O)(=O)C=C)C2)cc1 (relative stereo) [13-t],enrich.exp.med.lin,[1],5.403
same,enrich.exp.med.log2,[1],2.434
same,enrich.exp.med.lin,"[1]; Expt Probe, analysis C6",5.403
same,enrich.exp.med.log2,"[1]; Expt Probe, analysis C6",2.434
same,enrich.exp.med,"[1]; exp_ref Probe, analysis C6",2.434
same,enrich.exp.med,[2],1.065
same,enrich.exp.med,[3],0.1871
same,enrich.exp.med.lin,[4],12.9915
same,enrich.exp.med.log2,[4],3.6995
same,enrich.exp.med.lin,"[4]; Expt Probe, analysis C6",12.9915
same,enrich.exp.med.log2,"[4]; Expt Probe, analysis C6",3.6995
same,enrich.exp.med,"[4]; exp_ref Probe, analysis C6",3.6995
same,enrich.exp.med,"[5]; exp_ref Probe, analysis C6",0.7352
same,enrich.exp.med.lin,[5],1.665
same,enrich.exp.med.log2,[5],0.7352
same,enrich.exp.med,[6],-1.399
same,enrich.exp.med,[7],-0.2955
same,enrich.exp.med,"[8]; Probe, protein SERBP1 Q8NC51",-1.6881
same,enrich.exp.med.lin,[8]; protein SERBP1 (Q8NC51),0.3103
same,enrich.exp.med.log2,[8]; protein SERBP1 (Q8NC51),-1.6881
same,enrich.exp.med,[9],0.4283
same,enrich.exp.med,[10],0.05791
same,enrich.exp.med,[11],-1.705
same,enrich.exp.med,[12],0.4836
same,enrich.exp.med,[13],-0.4498
same,enrich.exp.med,[14],0.7997
same,enrich.exp.med,[15],0.1008
same,enrich.exp.med,[16],-0.5086
same,enrich.exp.med,[17],0.1581
same,enrich.exp.med,[18],-0.1243
same,enrich.exp.med,[19],1.379
same,enrich.exp.med,[20],0.1255
